Experimental findings from patent publication US20230381182A1, “Biomarkers Related to Immune Checkpoint Inhibitor Therapy and Methods of Using the Same” (Senda Biosciences, Inc., priority 2020, published 2023) are described below.

Assay [1] concerns CT26 cells. Description: Anti-tumor efficacy in CT26 mouse model unresponsive to anti-PD-L1 therapy. The class given is in vivo, Balb/c mice. The note with it: Compound No. 30 10 mg/kg p.o. once a day over 14 days coadministered with anti-PD-L1 antibody 10 mg/kg i.p. every 3 days. The protocol: The anti-tumor efficacy of Compound No. 30 was studied in a CT26 mouse model which is unresponsive to anti-PD-L1 therapy only. CT26 cells were implanted subcutaneously into Balb/c mice which were then randomized and treated either with an […], an anti-PD-L1 antibody, or Compound No. 30 of Table 2 in combination with the anti-PD-L1 antibody. Compound No. 30 was dosed 10 mg/kg, p.o. once a day over 14 days and the anti-PD-L1 antibody was dosed at 10 mg/kg i.p. every 3 days.

In assay [2] the target is T1, AhR (Homo sapiens, UniProt P35869).
T1 construct: endogenous in cells; host or cells: Human HepG2 liver carcinoma AhR-Lucia reporter cells (DRE-luciferase reporter stably transfected)
T1 sequence (P35869 11-848): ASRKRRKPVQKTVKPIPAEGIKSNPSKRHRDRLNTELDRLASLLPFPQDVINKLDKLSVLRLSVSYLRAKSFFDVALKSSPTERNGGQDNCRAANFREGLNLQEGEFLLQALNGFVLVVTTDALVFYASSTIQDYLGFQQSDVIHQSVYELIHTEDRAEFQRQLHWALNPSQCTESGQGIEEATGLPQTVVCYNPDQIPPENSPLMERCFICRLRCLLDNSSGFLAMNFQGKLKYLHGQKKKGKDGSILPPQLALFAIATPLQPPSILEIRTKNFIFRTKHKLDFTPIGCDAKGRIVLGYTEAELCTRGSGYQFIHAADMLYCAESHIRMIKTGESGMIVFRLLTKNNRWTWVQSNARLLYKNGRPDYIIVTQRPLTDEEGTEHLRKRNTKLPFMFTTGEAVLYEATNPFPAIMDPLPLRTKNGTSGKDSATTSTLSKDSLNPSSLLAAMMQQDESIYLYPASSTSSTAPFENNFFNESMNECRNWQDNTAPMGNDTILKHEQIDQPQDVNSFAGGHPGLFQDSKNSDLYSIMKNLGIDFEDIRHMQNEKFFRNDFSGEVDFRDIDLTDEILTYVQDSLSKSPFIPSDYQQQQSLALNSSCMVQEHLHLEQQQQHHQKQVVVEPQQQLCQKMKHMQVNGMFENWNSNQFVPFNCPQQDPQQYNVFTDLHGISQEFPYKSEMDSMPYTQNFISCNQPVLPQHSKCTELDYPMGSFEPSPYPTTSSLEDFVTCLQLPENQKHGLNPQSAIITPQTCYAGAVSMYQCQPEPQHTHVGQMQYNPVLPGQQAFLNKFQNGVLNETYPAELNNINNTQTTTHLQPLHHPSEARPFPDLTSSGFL
Description: DRE-Luciferase reporter assay (HepG2-Luc). The format is cell-based. The note with it: Human HepG2 liver carcinoma AhR-Lucia reporter cells; inhibition of luciferase activity induced by AhR activating ligand at its EC50. The text has this: AhR binds to dioxin responsive elements (DRE) upstream of the genes that it activates. One measure of AhR activity is activation of a reporter gene, such as luciferase, downstream of one or multiple DRE elements. Luciferase activity reflects activation and inhibition of AhR in the cells expressing this reporter. 20000 Human HepG2 liver carcinoma—AhR-Lucia reporter cells or Human HT29 colon adenocarcinoma-AhR reporter cells or other cell lines with a DRE-luciferase reporter stably transfected were plated in Eagle's Minimal Essential Medium, 10% heat-inactivated FBS, 1× non-essential amino acids Pen-Strep (10,000 U/mL) and Normocin (100 ug/mL) in plates (96-well, 384-well or other plates) and incubated overnight at 37° C. in a CO2 incubator and treated with and without AhR antagonists at a log dilution starting at 100 μM. […]
Cells were incubated for 24 or 48 hours or another time point and the supernatant was analyzed for determination of luciferase activity as a read-out of the AhR activation or inhibition. Luciferase was measured with the commercial kit QUANTI-Luc™ assay solution kit from InvivoGen following the manufacturer's instructions.
The level of luciferase with only agonist ligand added was the maximum signal while the luciferase with […] was the minimum signal. IC50 values were determined as the concentration which inhibits half of the luciferase activity.

Consider `C[C@H](n1cnc2c(-c3cnn(C)c3)nc(-c3ccc(Cl)cc3)cc2c1=O)C(C)(C)O` [Compound No. 30, (S)-6-(4-chlorophenyl)-3-(3-hydroxy-3-methylbutan-2-yl)-8-(1-methyl-1H-pyrazol-4-yl)pyrido[3,4-d]pyrimidin-4(3H)-one], for which the “tumor volume (tumor growth curves)” value in assay [1] (p=0.039, Mann-Whitney, FIG. 4A) is on record as “reduction in tumor volume”. Besides, in assay [1] (p=0.067, Mann-Whitney, FIG. 4B), the tumor weight result was “reduction in tumor weight”. In assay [2], `O=c1c2cc(-c3ccc(OC(F)(F)F)cc3)nc(-c3cccnc3)c2ncn1C[C@@H](O)C(F)(F)F` [compound 123, (R)-8-(pyridin-3-yl)-3-(3,3,3-trifluoro-2-hydroxypropyl)-6-(4-(trifluoromethoxy)phenyl)pyrido[3,4-d]pyrimidin-4(3H)-one] came in with an IC50 of less than 100 nM.
